The target of one test is T1, LXR beta (Homo sapiens, UniProt P55055).
T1 construct: 5 μL of 4×LXR beta-LBD was added to each well (final concentration 5 nM); purchased Thermofisher PV4658
T1 sequence (P55055 222-460 limits assumed): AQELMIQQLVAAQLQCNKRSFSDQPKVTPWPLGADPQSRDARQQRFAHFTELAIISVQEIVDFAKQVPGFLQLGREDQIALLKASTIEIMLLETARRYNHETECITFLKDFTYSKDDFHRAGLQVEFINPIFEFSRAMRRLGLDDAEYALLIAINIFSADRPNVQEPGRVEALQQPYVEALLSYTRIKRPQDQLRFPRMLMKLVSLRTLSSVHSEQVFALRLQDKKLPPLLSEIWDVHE
The test can be described thus: LXR beta agonist assay (Lanthascreen TR-FRET). It is filed as biochemical. Particulars: LXR beta-LBD 5 nM, read-out: LXR-β EC50. On the procedure:
EC50 values of compounds against LXR beta were determined at Integral BioSciences (India) using Lanthascreen TR-FRET (Thermofisher, Cat #PV4658). Assay was performed in a 20 μL final volume in a Black 384-well plate (Corning, Cat #4511). Dose response curve for the compounds were prepared in duplicates with starting concentration at 30 μM and a three-fold titration was performed. The reaction buffer consisted of TR-FRET Coregulator Buffer G. To the compound dilution, 5 μL of 4×LXR beta-LBD was added to each well (final concentration 5 nM). An equal volume (5 μL) containing 4×Fl-D22/Tb-anti GST antibody (final concentration 100 nM/10 nM) was added to initiate the enzyme reaction and the reaction was incubated for 60 min at 22° C. after which the plates were read using BioTek Plate reader for TR-FRET every hour up to 4 hours.
Analysis was done using the standard curve by non-linear regression, variable slope inhibitor curve fits (Graph-Pad Prism) and EC50's of compounds were determined wherever possible.
A general note: Time-resolved FRET reads energy transfer from a long-lived donor to a nearby acceptor.

The subject of the next test is HepG2. In words: Cell viability assay (resazurin) in HepG2. In kind it is cell-based. The note with it: Homo sapiens, 96 hr exposure. As for the experimental part: HepG2 (ATCC® HB-8065™), hepatocellular carcinoma, A549 (ATCC® CCL-185™), lung epithelial carcinoma, MCF7 (ATCC® HTB-22™), mammary gland epithelial carcinoma, MDA-MB-231 (ATCC® HTB-26™), TNBC, MiaPaCa-2 (ATCC® CRL-1420™) & Panc-1 (ATCC® CRL-1469™), pancreatic epithelial carcinoma, HCT116 (ATCC® CCL-247™), colon epithelial carcinoma and U87MG (ATCC® HTB-14™), brain epithelial carcinoma cell lines respectively were seeded in the respective medium (DMEM, Cat #10569044 with 10% FBS, Cat #16000044; Gibco for HepG2, A549, MCF7, MDA-MB-231, MiaPaCa-2, Panc-1, HCT116 and MEM, Cat #11095080 with 10% FBS for U87MG). Cells were allowed to grow at 37° C. for 24 hr in 5% CO2 (culture conditions) in a Nuaire incubator (humidified). Serially diluted compounds (100 μl) were added to the culture plate 24 hr later and the cultures were further incubated in culture conditions for 96 hr. Experiment was terminated at the completion of 96 hr exposure to the drug by replacing the medium with 100 μl of 1 mM of resazurin (R7017; Sigma) prepared in culture medium and the plates were further incubated in culture conditions for 4 hr. Fluorescence was then measured using a multimodal plate reader (Biotek Synergy Neo) at an excitation wavelength of 535 nm and emission wavelength of 590 nm to obtain relative fluorescence units. Data analysis was done by subtracting the background fluorescence (only medium blank) value from each reading and then normalizing with the vehicle control (DMSO treated cells) to obtain percent survival/proliferation. Percent survival at different doses was used to calculate IC50 by fitting the curve to the “four-parameter variable slope logistic model” using Prism Graph Pad.
On the technique in general: Alamar Blue is a resazurin reagent that responds to reducing activity.

By EC50 is commonly meant the midpoint of the concentration-response curve. What is called IC50 is the concentration that gives 50% inhibition. `CN(C)C(=O)c1ccc(N2CCC(N3CC4(CCN(C(=O)[C@](O)(c5ccccc5)C(F)(F)F)CC4)C3)CC2)cc1Cl` [Compound 1.79, 2-chloro-N,N-dimethyl-4-(4-(7-((R)-3,3,3-trifluoro-2-hydroxy-2-phenylpropanoyl)-2,7-diazaspiro[3.5]nonan-2-yl)piperidin-1-yl)benzamide]: on LXR beta, the EC50 was 4.3 µM. The IC50 in the test on HepG2 amounted to 26.6 µM.

For `CN(C)C(=O)c1ccc(N2CC3(CCN(C4CCN(C(=O)[C@](O)(c5ccccc5)C(F)(F)F)CC4)CC3)C2)cc1Cl` [Compound 1.75, 2-chloro-N,N-dimethyl-4-(7-(1-((R)-3,3,3-trifluoro-2-hydroxy-2-phenylpropanoyl)piperidin-4-yl)-2,7-diazaspiro[3.5]nonan-2-yl)benzamide], the 50% effective concentration (EC50) at LXR beta was > 30 µM. Also, the concentration for half-maximal inhibition (IC50) in the test with HepG2 was > 30 µM.

For `CC(C)C(O)(C(=O)N1CCC(N2CCC3(CC2)CN(c2ccc(C(=O)N(C)C)c(Cl)c2)C3)CC1)C(F)(F)F` (stereo not shown) [Compound 1.78, 2-chloro-4-(7-(1-(2-hydroxy-3-methyl-2-(trifluoromethyl)butanoyl)piperidin-4-yl)-2,7-diazaspiro[3.5]nonan-2-yl)-N,N-dimethylbenzamide], the EC50 at LXR beta is > 30 µM. The IC50 with HepG2 is > 30 µM.

For the compound `CC(C)[C@@](O)(C(=O)N1CCC2(CC1)CN(C1CCN(c3ccc(C(=O)N(C)C)c(Cl)c3)CC1)C2)C(F)(F)F` (single isomer, unassigned) [Compound 1.73], the EC50 at LXR beta worked out at 1.41 µM. In the test with HepG2, the half-inhibitory concentration (IC50) is > 30 µM.

For `CN(C)C(=O)c1ccc(N[C@@H]2CCCN(C3CCN(C(=O)[C@](O)(c4ccccc4)C(F)(F)F)CC3)C2)cc1Cl` [Compound 1.71, 2-chloro-N,N-dimethyl-4-((R)-1′-((R)-3,3,3-trifluoro-2-hydroxy-2-phenylpropanoyl)-1,4′-bipiperidin-3-ylamino)benzamide], the EC50 at LXR beta is 1.18 µM. Further, the IC50 in the test on HepG2 is > 29.4 µM.

For `O=C(c1ccc(NC2CN(C3CCN(C(=O)C(O)(c4cccc(Cl)c4)C(F)(F)F)CC3)C2)cc1Cl)N1CCC(F)(F)C1` (stereo not shown) [Compound 1.132, 1-(4-(3-((3-chloro-4-(3,3-difluoropyrrolidine-1-carbonyl)phenyl)amino)azetidin-1-yl)piperidin-1-yl)-2-(3-chlorophenyl)-3,3,3-trifluoro-2-hydroxypropan-1-one], on LXR beta, the EC50 turned out to be 0.61 µM.

As to `CN(C)C(=O)c1ccc(NC2CN(C3CCN(C(=O)[C@](O)(c4ccccc4)C(F)(F)F)CC3)C2)cc1F` (single isomer, unassigned) [Compound 1.87], on LXR beta, the EC50 was > 30 µM.

For `CN(C)C(=O)c1ccc(O[C@H]2CCN(C3CCN(C(=O)[C@](O)(c4ccccc4)C(F)(F)F)CC3)C2)cc1Cl` [Compound 1.76, 2-chloro-N,N-dimethyl-4-((S)-1-(1-((R)-3,3,3-trifluoro-2-hydroxy-2-phenylpropanoyl)piperidin-4-yl)pyrrolidin-3-yloxy)benzamide], on LXR beta, the EC50 was > 29.8 µM. The IC50 with HepG2 was > 30 µM.

As for `CN(C)C(=O)c1ccc(NC2CN(C3CCN(C(=O)C4(c5ccc(F)cc5)CCCC4)CC3)C2)cc1Cl` [Compound 1.34, 2-chloro-4-(1-(1-(1-(4-fluorophenyl)cyclopentanecarbonyl)piperidin-4-yl)azetidin-3-ylamino)-N,N-dimethylbenzamide], the EC50 on LXR beta is 3.41 µM.

In the case of `CN(C)C(=O)c1ccc(-c2ccn(C3CCN(C(=O)C(O)(c4ccccc4)C(F)(F)F)CC3)c(=O)c2)cc1Cl` (stereo not shown) [Compound 1.27, 2-chloro-N,N-dimethyl-4-(2-oxo-1-(1-(3,3,3-trifluoro-2-hydroxy-2-phenylpropanoyl)piperidin-4-yl)-1,2-dihydropyridin-4-yl)benzamide], the EC50 on LXR beta is > 30 µM.

On to `CC(=O)N1CCN(C(=O)c2ccc(NC3CN(C4CCN(C(=O)[C@@](O)(c5ccccc5)C(F)(F)F)CC4)C3)cc2Cl)CC1` (single isomer, unassigned) [Compound 1.105], for which, on LXR beta, the concentration for a half-maximal effect (EC50) stood at 2.25 µM.

Regarding `CN(C)C(=O)c1ccc(O[C@@H]2CCN(C3CCN(C(=O)[C@](O)(c4ccccc4)C(F)(F)F)CC3)C2)cc1Cl` [Compound 1.72, 2-chloro-N,N-dimethyl-4-((R)-1-(1-((R)-3,3,3-trifluoro-2-hydroxy-2-phenylpropanoyl)piperidin-4-yl)pyrrolidin-3-yloxy)benzamide], the 50% effective concentration (EC50) on LXR beta amounted to 5.37 µM. For the same compound, the IC50 in the test with HepG2 was > 30 µM.

For the compound `O=C(c1ccc(NC2CN(C3CCN(C(=O)[C@](O)(c4ccccc4)C(F)(F)F)CC3)C2)cc1Cl)N1CCCCC1` (single isomer, unassigned) [Compound 1.109], the EC50 on LXR beta turned out to be 3.01 µM.

Turning to `O=C(c1ccc(NC2CN(C3CCN(C(=O)[C@@](O)(c4ccccc4)C(F)(F)F)CC3)C2)cc1Cl)N1CCCC1` (single isomer, unassigned) [Compound 1.99], at LXR beta, the concentration for a half-maximal effect (EC50) was 1.82 µM.

Regarding `COc1cccc(C2(C(=O)N3CC=C(c4nnc(-c5ccc(C(=O)N(C)C)c(Cl)c5)s4)CC3)CCCC2)c1` [Compound 1.64, 2-chloro-4-(5-(1-(1-(3-methoxyphenyl)cyclopentanecarbonyl)-1,2,3,6-tetrahydropyridin-4-yl)-1,3,4-thiadiazol-2-yl)-N,N-dimethylbenzamide], the half-maximal effective concentration (EC50) at LXR beta is > 30 µM.

On to `CN(C)C(=O)c1ccc(NC2CN(C3CCN(S(=O)(=O)c4ccccc4Cl)CC3)C2)cc1Cl` [Compound 1.2, 2-chloro-4-(1-(1-(2-chlorophenylsulfonyl)piperidin-4-yl)azetidin-3-ylamino)-N,N-dimethylbenzamide], for which the EC50 on LXR beta is 3.34 µM.

Regarding `CN(C)C(=O)c1ccc(N(C)C2CN(C3CCN(C(=O)C4(c5ccccc5)CCC4)CC3)C2)cc1Cl` [Compound 1.31, 2-chloro-N,N-dimethyl-4-(methyl(1-(1-(1-phenylcyclobutanecarbonyl)piperidin-4-yl)azetidin-3-yl)amino)benzamide], at LXR beta, the EC50 is 3.23 µM.

In the case of `O=C(NCC(F)F)c1ccc(NC2CN(C3CCN(C(=O)[C@@](O)(c4ccccc4)C(F)(F)F)CC3)C2)cc1Cl` (single isomer, unassigned) [Compound 1.107], on LXR beta, the half-maximal effective concentration (EC50) amounted to 1.3 µM.

As to `O=C(c1ccc(NC2CN(C3CCN(C(=O)C(O)(c4ccccc4)C(F)(F)F)CC3)C2)cc1Cl)N1CCN(C(=O)C2CCC2)CC1` (stereo not shown) [Compound 1.102, 1-(4-(3-((3-chloro-4-(4-(cyclobutanecarbonyl)piperazine-1-carbonyl)phenyl)amino)azetidin-1-yl)piperidin-1-yl)-3,3,3-trifluoro-2-hydroxy-2-phenylpropan-1-one], the EC50 on LXR beta was 3.18 µM.

As to `CN(C)C(=O)c1ccc(-c2nnc(C3=CCN(C(=O)C45CC6CC(CC(C6)C4)C5)CC3)s2)cc1Cl` [Compound 1.65, 4-{5-[1-(adamantane-1-carbonyl)-1,2,3,6-tetrahydropyridin-4-yl]-1,3,4-thiadiazol-2-yl}-2-chloro-N,N-dimethylbenzamide], at LXR beta, the EC50 is 3.96 µM.

`CN(C)C(=O)c1c(Cl)cc(NC2CN(C3CCN(C(=O)[C@](O)(c4ccccc4)C(F)(F)F)CC3)C2)cc1Cl` [Compound 1.122, (R)-2,6-dichloro-N,N-dimethyl-4-(1-(1-(3,3,3-trifluoro-2-hydroxy-2-phenylpropanoyl)piperidin-4-yl)azetidin-3-ylamino)benzamide]: the concentration giving a half-maximal response (EC50) on LXR beta was 4.26 µM.

The values above are taken from US20220363662A1, “COMPOUNDS AS LXR AGONISTS” (Integral Biosciences Privated Limited, priority 2021, published 2022).
